Among the data in the supplement of paper PMC10307832 are relative viability values, retold here.

Common to all, as to assay: relative viability (nuclei count vs DMSO), 5 days (fraction); higher = more cells survive
Compound in the assay “Apatinib + Pemetrexed”: N#CC1(c2ccc(NC(=O)c3cccnc3NCc3ccncc3)cc2)CCCC1 [Apatinib] + Nc1nc2[nH]cc(CCc3ccc(C(=O)N[C@@H](CCC(=O)O)C(=O)O)cc3)c2c(=O)[nH]1 [Pemetrexed] (partner 0.2 µM)
The gist of the method: (§1)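 A single step with final 0.05% Triton X-100, 1% formaldehyde and 1 ug/ml Hoechst fixed the cells and stained nuclei 5 days after treatment. Lung cancer cell lines in 1536-well plates had been treated by pin tool the day after seeding with one drug alone or a fixed anchor-drug dose plus five library-drug doses (not always all listed) in √10 steps, and nuclei were counted on 4× images. Relative viability is the ratio of nuclei in treated wells to nuclei in vehicle wells, taken as the median of duplicate plates.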

Compound in the assay “Apatinib + OSI-027”: N#CC1(c2ccc(NC(=O)c3cccnc3NCc3ccncc3)cc2)CCCC1 [Apatinib] + COc1cccc2cc(-c3nc([C@H]4CC[C@H](C(=O)O)CC4)n4ncnc(N)c34)[nH]c12 [OSI-027] (partner 0.5 µM)
The method in brief: as §1

Compound in the assay “Metformin + Pictilisib”: CN(C)C(=N)NC(=N)N [Metformin] + CS(=O)(=O)N1CCN(Cc2cc3nc(-c4cccc5[nH]ncc45)nc(N4CCOCC4)c3s2)CC1 [Pictilisib] (partner 1 µM)
The gist of the method:
as §1

Compound in the assay “Apatinib + Luminespib”: N#CC1(c2ccc(NC(=O)c3cccnc3NCc3ccncc3)cc2)CCCC1 [Apatinib] + CCNC(=O)c1noc(-c2cc(C(C)C)c(O)cc2O)c1-c1ccc(CN2CCOCC2)cc1 [Luminespib] (partner 0.01 µM)
The method in brief: as §1

On to NCI-H460, for which the relative viability with Apatinib + Pemetrexed (first compound 0.08 µM) came to 0.0617; in the assay with Apatinib + Pemetrexed (first compound 0.253 µM), 0.0695; with Apatinib + Pemetrexed (first compound 0.8 µM) it was 0.0575; with Apatinib + Pemetrexed (first compound 2.53 µM), 0.0757; in the assay with Apatinib + Pemetrexed (first compound 8 µM), 0.0845; with Apatinib + OSI-027 (first compound 0.08 µM), 0.799. Further, the relative viability worked out at 0.746 with Apatinib + OSI-027 (first compound 0.253 µM); 0.491 with Apatinib + OSI-027 (first compound 0.8 µM); 0.541 with Apatinib + OSI-027 (first compound 2.53 µM); 0.333 with Apatinib + OSI-027 (first compound 8 µM); 0.41 in the assay with Metformin + Pictilisib (first compound 31.62 µM); 0.327 with Metformin + Pictilisib (first compound 100 µM). Also, the relative viability with Metformin + Pictilisib (first compound 316.23 µM) came out at 0.337; with Metformin + Pictilisib (first compound 1000 µM) it was 0.401; in the assay with Apatinib + Luminespib (first compound 0.08 µM) it was 0.0389; in the assay with Apatinib + Luminespib (first compound 0.253 µM), 0.0355; with Apatinib + Luminespib (first compound 0.8 µM) it was 0.0311; with Apatinib + Luminespib (first compound 2.53 µM) it was 0.0328. In addition, in the assay with Apatinib + Luminespib (first compound 8 µM), the relative viability was 0.0337.
